Common to all, as to format: cell-based
Test [1] concerns T47D cells expressing mutant PI3Ka (H1047R). Nature of the test: In vitro cell proliferation, T47D cells (CellTiter-Glo). The settings on record: inhibition of proliferation, 72 hours, read-out: Avg T-47D EC50. The method in brief:
(§1)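 1,500 cells/well seeded onto pre-stamped 10-pt dilution plates; T47D in RPMI + 10% FBS + insulin 0.2 units/mL, SKBR3 in McCoys 5a + 10% FBS. 72 h, 37 °C, 5% CO2. CTG readout. 0% = 0.1% DMSO, 100% = 10 uM Alpelisib; sigmoidal fit gives EC50.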

Test [2] concerns SKBR3 cells express WT PI3Ka. Nature of the test: In vitro cell proliferation, SKBR3 cells (CellTiter-Glo). The note with it: inhibition of proliferation. In a few lines:
as §1
(In general: In ATP-based viability assays light output follows the ATP content of the culture.)

The test system of test [3] is phosphorylation of AKT (pAKT) in T47D cells expressing mutant PI3Ka (H1047R). Nature of the test: In vitro cell pAKT (Ser473) HTRF, T47D cells. The note with it: cellular pAKT, T47D cells, mutant PI3Ka (H1047R), 6 hours; read-out: Avg T-47D IC50. In a few lines: (§2)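 pAKT (Ser473) was quantified by HTRF in lysates from cells exposed 6 h at 37 °C to 10-point compound series, with T47D in insulin-supplemented RPMI/10% FBS and SKBR3 in McCoy's 5a/10% FBS. Controls: 0.1% DMSO (high) and 10 uM alpelisib (low). IC50 from sigmoidal curve fitting.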
In general terms: In TR-FRET formats the signal depends on donor and acceptor labels being close together.

Test [4] relates to phosphorylation of AKT (pAKT) in SKBR3 cells express WT PI3Ka. Nature of the test: In vitro cell pAKT (Ser473) HTRF, SKBR3 cells. The settings on record: cellular pAKT. The method in brief: as §2

For orientation: EC50 means the midpoint of the concentration-response curve. In general, IC50 refers to the concentration needed to halve the response being measured.

With `Cc1cc(C(C)Nc2ccccc2C(=O)O)c2cc(N3CCN(C(=O)OC(C)C)CC3)n(C)c(=O)c2c1` (single isomer, unassigned) [Example 149], the values for the concentration giving a half-maximal response (EC50) in test [1] and in test [2] (72 hours) were 0.001 to 0.5 µM and 2 to 15 µM, respectively. Further, the half-maximal inhibitory concentration (IC50) in test [3] lay in the range of 0.001 to 0.5 µM; in test [4] (6 hours) it was 2 to 15 µM.
Turning to `Cc1cc(C(C)Nc2ccccc2C(=O)O)c2cc(N3CCS(=O)(=O)CC3)n(C)c(=O)c2c1` (single isomer, unassigned) [Example 150], the concentration giving a half-maximal response (EC50) in test [1] was 2 to 15 µM; in test [2] (Homo sapiens, SK-BR-3, 72 h), > 15 µM. Further, the half-inhibitory concentration (IC50) in test [3] is 2 to 15 µM; in test [4] (Homo sapiens, SK-BR-3, 6 h), > 15 µM.
Consider `Cc1cc(C(C)Nc2ccccc2C(=O)O)c2cc(N3CCS(=O)(=O)CC3)n(C)c(=O)c2c1` (single isomer, unassigned) [Example 151], for which the EC50 in test [1] and in test [2] (72 hours) was > 15 µM each time. For the same molecule, the 50% inhibitory concentration (IC50) in test [3] and in test [4] (6 hours) was > 15 µM throughout.
With `COC1(C)CCN(c2cc3c(C(C)Nc4ccccc4C(=O)O)cc(C)cc3c(=O)n2C)CC1` (single isomer, unassigned) [Example 153], the EC50 in test [1] was in the range of 0.001 to 0.5 µM; in test [2] (72 hours), 2 to 15 µM. Moreover, the IC50 was in the range of 0.001 to 0.5 µM in test [3] and 2 to 15 µM in test [4] (6 hours).
As for `COC1(C)CCN(c2cc3c(C(C)Nc4ccccc4C(=O)O)cc(C)cc3c(=O)n2C)CC1` (single isomer, unassigned) [Example 154], the EC50 in test [1] was 2 to 15 µM; in test [2] (72 hours), > 15 µM. Besides, the half-inhibitory concentration (IC50) in test [3] and in test [4] (6 hours) was > 15 µM in each case.
Turning to `COc1ccc(-c2cc3c(C(C)Nc4ccccc4C(=O)O)cc(C)cc3c(=O)n2C)cn1` (single isomer, unassigned) [Example 155], the EC50 in test [1] is 0.001 to 0.5 µM; in test [2] (Homo sapiens, SK-BR-3, 72 h), > 15 µM. Besides, the IC50 in test [3] is 0.001 to 0.5 µM; in test [4] (Homo sapiens, SK-BR-3, 6 h), > 15 µM.
Turning to `COc1ccc(-c2cc3c(C(C)Nc4ccccc4C(=O)O)cc(C)cc3c(=O)n2C)cn1` (single isomer, unassigned) [Example 156], the half-maximal effective concentration (EC50) in test [1] is 2 to 15 µM; in test [2] (72 hours) it was > 15 µM. Also, the results for the IC50 in test [3] and in test [4] (6 hours) were 2 to 15 µM and > 15 µM, respectively.
Take `Cc1cc(C(C)Nc2ccccc2C(=O)O)c2cc(N3CCC4(CCOCC4)CC3)n(C)c(=O)c2c1` (single isomer, unassigned) [Example 166]: the EC50 in test [1] is 2 to 15 µM; in test [2] (72 hours), > 15 µM. The results for the concentration for half-maximal inhibition (IC50) in test [3] and in test [4] (6 hours) were 2 to 15 µM and > 15 µM, respectively.
For the molecule `Cc1cc(C(C)Nc2ccccc2C(=O)O)c2cc(N3CCC4(CCOCC4)CC3)n(C)c(=O)c2c1` (single isomer, unassigned) [Example 167], the EC50 in test [1] lay in the range of 0.001 to 0.5 µM; in test [2] (72 hours), 2 to 15 µM. For the same molecule, the results for the half-maximal inhibitory concentration (IC50) in test [3] and in test [4] (6 hours) were 0.001 to 0.5 µM and 2 to 15 µM, respectively.
In the case of `Cc1cc(C(C)Nc2ccccc2C(=O)O)c2cc(N3CCC4(CCCCO4)CC3)n(C)c(=O)c2c1` (single isomer, unassigned) [Example 168], the EC50 was 0.001 to 0.5 µM in test [1] and > 15 µM in test [2] (72 hours). In addition, the half-inhibitory concentration (IC50) in test [3] fell in the range of 0.001 to 0.5 µM; in test [4] (6 hours), 2 to 15 µM.
Consider `Cc1cc(C(C)Nc2ccccc2C(=O)O)c2cc(N3CCC4(CCCCO4)CC3)n(C)c(=O)c2c1` (single isomer, unassigned) [Example 169], for which the EC50 in test [1] and in test [2] (72 hours) was > 15 µM throughout. Besides, the concentration for half-maximal inhibition (IC50) is 2 to 15 µM in test [3] and > 15 µM in test [4] (6 hours).
With `Cc1cc(C(C)Nc2ccccc2C(=O)O)c2cc(N3Cc4ccc(F)c(F)c4C3)n(C)c(=O)c2c1` (single isomer, unassigned) [Example 177], the EC50 is 2 to 15 µM in test [1] and > 15 µM in test [2] (Homo sapiens, SK-BR-3, 72 h). Moreover, the concentration for half-maximal inhibition (IC50) in test [3] is > 15 µM; in test [4] (Homo sapiens, SK-BR-3, 6 h) it was > 15 µM.
On to `Cc1cc(C(C)Nc2ccccc2C(=O)O)c2cc(N3Cc4ccc(F)c(F)c4C3)n(C)c(=O)c2c1` (single isomer, unassigned) [Example 178], for which the EC50 is 0.5 to 2 µM in test [1] and > 15 µM in test [2] (72 hours). Moreover, the IC50 was 0.001 to 0.5 µM in test [3] and > 15 µM in test [4] (6 hours).
